Source: US7388003B2, “Δ15-D-Homosteroids with androgenic action” (Bayer Schering Pharma AG, priority 2003, dated 2008)

Legend:
Androgen Receptor [1] = target: T1, Androgen Receptor (Homo sapiens, UniProt P10275); assay: Receptor binding affinity to the androgen receptor (reference DHT=100%)
T1 sequence (P10275 1-920): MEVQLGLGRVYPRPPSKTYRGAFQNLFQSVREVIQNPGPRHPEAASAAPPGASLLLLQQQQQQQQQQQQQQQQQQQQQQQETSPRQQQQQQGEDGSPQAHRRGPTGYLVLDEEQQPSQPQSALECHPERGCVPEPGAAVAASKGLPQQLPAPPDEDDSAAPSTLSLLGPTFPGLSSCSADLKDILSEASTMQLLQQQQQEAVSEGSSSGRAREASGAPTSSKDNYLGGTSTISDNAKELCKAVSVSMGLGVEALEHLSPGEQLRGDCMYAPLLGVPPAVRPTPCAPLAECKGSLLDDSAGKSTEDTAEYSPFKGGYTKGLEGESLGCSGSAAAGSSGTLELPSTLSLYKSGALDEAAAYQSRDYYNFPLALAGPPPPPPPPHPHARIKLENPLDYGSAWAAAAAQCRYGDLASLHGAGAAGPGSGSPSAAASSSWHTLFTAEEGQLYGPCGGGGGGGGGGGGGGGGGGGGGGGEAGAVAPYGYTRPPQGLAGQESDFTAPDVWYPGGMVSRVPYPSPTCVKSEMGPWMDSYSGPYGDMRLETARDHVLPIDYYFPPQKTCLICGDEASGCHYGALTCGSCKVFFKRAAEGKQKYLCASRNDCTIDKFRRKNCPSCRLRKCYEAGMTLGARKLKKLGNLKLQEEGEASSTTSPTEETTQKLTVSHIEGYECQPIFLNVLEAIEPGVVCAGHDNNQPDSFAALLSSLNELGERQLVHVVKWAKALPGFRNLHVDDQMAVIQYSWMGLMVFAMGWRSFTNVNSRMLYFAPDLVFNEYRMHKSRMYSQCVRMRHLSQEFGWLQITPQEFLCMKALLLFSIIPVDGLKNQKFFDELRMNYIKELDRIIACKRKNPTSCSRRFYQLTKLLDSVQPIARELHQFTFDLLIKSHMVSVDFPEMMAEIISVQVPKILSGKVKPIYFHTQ

Androgen Receptor [2] = target: T1, Androgen Receptor; assay: Relative binding affinities (RBA) to the androgen receptor compared to testosterone and methyltrienolone; settings: relative binding affinity to the androgen receptor; R 1881 (Methyltrienolone) = 100

SMILES	receptor binding affinity to the androgen receptor (Androgen Receptor [1]) [%]	RBA % (Androgen Receptor [2]) [%]
CC1CC2=CC(=O)CCC2C2CCC3(C)C(O)C=CCC3C12 [17aβ-Hydroxy-7α-methyl-D-homoestra-4,16-dien-3-one]	2	–
CC12CCC3C4CCC(=O)C=C4CCC3C1C=CCC2O [Example 1, 17aβ-Hydroxy-D-homoestra-4,15-dien-3-one]	–	25
CC12CCC(=O)C=C1CCC1C2CCC2(C)C(O)CC=CC12 [Example 2, 17aβ-Hydroxy-D-homoandrost-4,15-dien-3-one]	–	12
C[C@]1(O)CC[C@H]2[C@@H]3CCC4=CC(=O)CCC4=C3C=C[C@@]21C [R 1881 (Methyltrienolone), Methyltrienolone]	–	100
